Reference: patent US20070118211A1, “Method for preparing drug eluting medical devices and devices obtained therefrom” (priority 2003, published 2007)

Assay: elution of the drug from coated stents in physiological solution (UV absorbance)
Type: physicochemical
Conditions: stent with allylamine polymer deposited by cold plasma compared with stent with polymer according to the state of the art (polybutadiene layers); 1 cc physiological solution; absorbance at 261 nm; FIG. 1
Experimental: Next, the stents were immersed in test tubes containing 1 cc of physiological solution and the rate of elution of the drug was measured by acquiring the visible UV spectrum using a Unicam 8700 spectrophotometer and reading off the absorbance at 261 nm. The correlation between absorbance and concentration was established by measuring the absorbance of solutions of known concentration (calibration curve). The drug elution measurements were carried out at fixed time intervals and the physiological solution was changed at each measurement.
10 mg of dexamethasone were dissolved in 1 cc of ethanol and applied as described previously. The elution curves were again measured as described in example 1 and the absorbance at 264.4 nm was read off.

For CS(=O)(=O)O.Cc1ccc(NC(=O)c2ccc(CN3CCN(C)CC3)cc2)cc1Nc1nccc(-c2cccnc2)n1 [hydrophilic drug, 4-[(4-methyl-1-piperazinyl)methyl]-N-[4-methyl-3-[[4-(3-pyridinyl)-2-pyrimidinyl]amino]-phenyl]benzamide methanesulphonate], the “elution of the hydrophilic drug” value was “significantly delays the elution”.
